Results as given in patent publication US12298308B2, “Neoadjuvant chemotherapy induces breast cancer metastasis through a TMEM-mediated mechanism” (Albert Einstein College of Medicine, priority 2017, dated 2025).

Assays:
TMEM = test: Extravascular Dextran-TMR in fixed tumor sections (multichannel IF); format: in vivo, mouse
Method: In a second independent validation experiment, a group of vehicle- or paclitaxel-treated mice received an i.v injection of Dextran-TMR for 1 hour and then sacrificed and evaluated for vascular permeability in fixed tumor sections (FIG. 2A). Multichannel IF staining included endomucin as a blood vessel exclusion mask and a specific anti-TMR antibody for assessing dextran leakage. A corresponding TMEM IHC staining section was co-aligned to evaluate the presence/absence of TMEM in each vascular profile that presented with vascular leakage. […] For quantification purposes, ˜20-30 vascular profiles were selected for each mouse, based on tissue size, degree of vascularization and quality of endomucin staining. […]
Paclitaxel Increases Metastatic Dissemination of Breast Tumors—To assess if paclitaxel treatment promotes tumor cell dissemination and metastatic incidence, we first quantified and compared incidence and frequency of bursting in mice treated with vehicle or paclitaxel, using IVI (FIGS. 3A-C). […] The same conclusions were reached when frequency of bursting was normalized to the number of TMEM sites, as measured in each field. […] In addition to IVI, extravascular dextran area was quantified and compared as % normalized to the blood vessel area in fixed tumors of mice treated with either vehicle or paclitaxel, using multichannel IF. […]

lung metastases = test: Lung metastasis and single cancer cell dissemination in lungs; format: in vivo, mouse
Source text: To further determine the effect of paclitaxel on cancer cell dissemination to distant sites, we harvested lungs and evaluated metastatic foci histologically. An increase was found in both the metastatic incidence (>1 micrometastatic focus of >5 tumor cells) (FIG. 3H) and the number of cancer cell micrometastases in the lungs of paclitaxel-treated mice (FIG. 3I). In addition, we quantified single cell dissemination of breast cancer cells in the lungs of FVB-recipient mice after syngeneic transplantation of MMTV-PyMT/Dendra2^+ tumors using ex vivo microscopy, and found an approximately 2-fold increase (p<0.01) of single Dendra2^+ breast cancer cells in the lungs of paclitaxel-treated mice (FIG. 3J). Overall, data presented in this section indicate that in early-stage breast cancers chemotherapy increases vascular permeability at TMEM sites which is accompanied by increased cancer cell dissemination.
Histology and TMEM Immunohistochemistry.

Mena^INV [1] = test: Mena^INV protein expression by immunofluorescence in mouse tumors; format: in vivo; conditions: PyMT-spontaneous and HT17-xenograft models; p<0.0001
Source text: To test this hypothesis, qRT-PCR analysis was first performed for total Mena (panMena), Mena11a and Mena^INV on formalin-fixed paraffin-embedded (FFPE) tumors from all mouse models. […] As shown in the specific Mena^INV IF, the pattern of Mena^INV expression in PyMT mice was heterogeneous (FIG. 4F), consistent with previous observations (40). […] In addition, there was an inverse correlation for the anti-metastatic Mena11a (p<0.01, […]).
(§1) Immunofluorescence. Slides were deparaffinized by melting at 60° C. in an oven equipped with a fan for 20 minutes, followed by 2× xylene treatment for 20 minutes. Slides were rehydrated and antigen retrieval was done in 1 mM EDTA (pH 8.0) or 1× citrate buffer (pH 6.0) (Diagnostic BioSystems) at 97° C. for 20 minutes in a conventional steamer. Endogenous peroxidase was blocked by using 0.3% hydrogen peroxide in water, followed by incubation of slides in a blocking buffer solution (10% FBS, 1% BSA, 0.0025% fish skin gelatin in 0.05% PBST) for 60 minutes at room temperature. […]

Mena^INV [2] = test: Mena^INV expression before and after NAC or paclitaxel in breast cancer patients; format: in vivo, human; conditions: qRT-PCR in FNA biopsies before and one week after second dose of weekly paclitaxel; n=5
Source text: To further substantiate the translational importance of our preclinical data from PyMT and PDX mice receiving neoadjuvant paclitaxel into human breast cancer patients, we compared Mena^INV expression levels in Pre- and Post-NAC samples. […] Additionally, we analyzed Mena^INV expression by qRT-PCR in fine needle aspiration (FNA) biopsies taken before and one week after the second dose of weekly paclitaxel in an independent small cohort of patients (n=5).
as §1

Q: With `CC(=O)O[C@H]1C(=O)[C@@]2(C)[C@H]([C@H](OC(=O)c3ccccc3)[C@]3(O)C[C@H](OC(=O)[C@H](O)[C@@H](NC(=O)c4ccccc4)c4ccccc4)C(C)=C1C3(C)C)[C@]1(OC(C)=O)CO[C@@H]1C[C@@H]2O` [paclitaxel] as the compound, how does the “vascular profiles with extravascular dextran co-localized with at least 1 TMEM” value (TMEM; fixed tumor sections, Dextran-TMR i.v. for 1 hour) read?
A: 96-98%

Q: And the “extravascular dextran area normalized to blood vessel area, fold vs vehicle-treated” value (TMEM; fixed tumors, p<0.05)?
A: 3 fold

Q: And the “increase of single Dendra2^+ breast cancer cells in the lungs” value (lung metastases; FVB recipients of MMTV-PyMT/Dendra2^+ tumors, ex vivo microscopy, p<0.01)?
A: approximately 2 fold

Q: What about the “disseminated cells in the lungs” value (lung metastases; Mena^-/- PyMT-CFP transplants) of the same compound?
A: failed to boost

Q: What about the “metastatic incidence (>1 micrometastatic focus of >5 tumor cells) in lungs” value (lung metastases; histological evaluation) of the same compound?
A: increase

Q: And the “number of cancer cell micrometastases in the lungs” value (lung metastases; histological evaluation)?
A: increase

Q: What about the “Mena^INV expression at the protein level” value (Mena^INV [1]) of the same compound?
A: increased expression

Q: And the “patients with increase of Mena^INV gene-expression” value (Mena^INV [2])?
A: 4/5
